Measured values taken from US20250367167A1, “COMPOSITION FOR MITOCHONDRIAL MODIFICATION COMPRISING A COMBINATION OF TWO OR MORE NATURAL PIGMENTS” (University of Seoul Industry Cooperation Foundation, priority 2024, published 2025).
Where “and” joins values, the source holds several entries; their conditions need not be identical. Identical values can stand only once.

Legend:
[1] = Absorption spectrum analysis of natural pigments (UV/Vis); type: physicochemical; conditions: 100 μM β-carotene, 60 μM anthocyanins, 40 μM chlorophyll a
Protocol: In order to analyze the absorbance spectra of three natural pigments (i.e., β-carotene, delphinidin chloride (anthocyanin), and chlorophyll a (Sigma-Aldrich)), the absorbance analysis was performed using a UV/Vis NANO spectrophotometer (Nabi).
In the drawing, “Experimental result” corresponds to the actually-measured absorption spectrum, and “Calculated result” represents the result of added-up values of the absorption spectrum of single natural pigments.
The results of the absorption spectrum analysis over time by mixing 100 µM B-carotene, 60 μM anthocyanin, and 40 μM chlorophyll a in various combinations are shown in FIG. 2E to 2H.

[2] = tested on: mitochondrial electron transport chain protein complexes; experiment: ATP production after treatment with inhibitors of electron transport chain protein complexes; type: biochemical, human; conditions: 2 μM inhibitor, 1 hour; C@mt; light 640-680 nm, 5 mW, 80 minutes
Protocol: It is generally known that ATP is produced through protein complexes involved in the electron transport process during the oxidative phosphorylation process of mitochondria. Accordingly, an analysis was performed using the ATP Assay Kit (Abcam) to evaluate the amount of ATP production when treating with inhibitors for each protein complex.
A total of 50 μL of mitochondria including each combination of natural pigments (C@mt, BC@mt, AC@mt, or BAC@mt) and 2 μM of inhibitors (Rotenone, Malonate, Antimycin A or Cyanide) for each protein complex were added to the E-tube and incubated at room temperature for 1 hour. Then, the supernatant was removed using a centrifuge (12,000 g, 15 minutes) and resuspended in 50 μL of PBS. 50 μL of mitochondria including a combination of natural pigments treated with inhibitors were added to each 96-well black plate, and irradiated with light having a wavelength of 640-680 nm at an intensity of 5 mW for 80 minutes. […]
Then, the amount of ATP production was measured by measuring the fluorescence intensity (Ex/Em=535/587 nm) using a microplate reader. The amount of ATP production was calculated by subtracting the fluorescence value measured upon irradiation with light for 0 minutes from the fluorescence value measured upon irradiation with light for 80 minutes, and the results are shown in FIGS. 8A and 8B.

| Compound | wavelength of high absorbance (absorption spectrum) [1] | ATP production after inhibitor treatment [2] |
| --- | --- | --- |
| Oc1cc(O)c2cc(O)c(-c3cc(O)c(O)c(O)c3)[o+]c2c1 [anthocyanins, delphinidin chloride] | 555 nm | – |
| C=Cc1c(C)c2cc3nc(c4c5[n-]c(cc6nc(cc1[n-]2)C(C)=C6CC)c(C)c5C(=O)[C@@H]4C(=O)OC)[C@@H](CCC(=O)OC/C=C(\C)CCC[C@H](C)CCC[C@H](C)CCCC(C)C)[C@@H]3C.[Mg+2] [chlorophyll a] | 415 nm and 662 nm | – |
| O=C(O)CC(=O)O [malonate, Malonate] | – | rapid decrease |
| CC1=C(/C=C/C(C)=C/C=C/C(C)=C/C=C/C=C(C)/C=C/C=C(C)/C=C/C2=C(C)CCCC2(C)C)C(C)(C)CCC1 [β-carotene] | 475 nm | – |
